The source made the active and inactive calls. No cut-off for these calls is given here.
Key:
[1] = target: AMP-activated protein kinase, AMPK (Homo sapiens) (UniProt P54646+O43741+P54619+Q9UGJ0+Q9Y478+Q13131+Q9UGI9); assay: Activation of AMPK in human Huh-7 cells assessed as increase in AMPK phosphorylation at Thr172 residue at 10 uM measured after 12 hrs by Western blot analysis; type: cell-based; details: filed as activator
[2] = Metabolic stability in human liver microsomes assessed as half life in presence of NADPH by LC-MS analysis; type: ADME, Microsome
[3] = Metabolic stability in mouse liver microsomes assessed as half life in presence of NADPH by LC-MS analysis; type: ADME, Microsome
[4] = Metabolic stability in human liver microsomes assessed as intrinsic clearance in presence of NADPH by LC-MS analysis; type: ADME, Microsome; details: read-out: CLH
[5] = Metabolic stability in mouse liver microsomes assessed as intrinsic clearance in presence of NADPH by LC-MS analysis; type: ADME, Microsome; details: read-out: CLH
[6] = Tmax in BALB/c mouse at 10 mg/kg, po by LC/MS-MS analysis; type: ADME, organism-based; details: in vivo
[7] = Tmax in BALB/c mouse at 2 mg/kg, iv by LC/MS-MS analysis; type: ADME, organism-based; details: in vivo
[8] = Cmax in BALB/c mouse at 10 mg/kg, po by LC/MS-MS analysis; type: ADME, organism-based; parameters: route oral, dose 10 mg/kg; details: in vivo
[9] = Cmax in BALB/c mouse at 2 mg/kg, iv by LC/MS-MS analysis; type: ADME, organism-based; parameters: route intravenous, dose 2 mg/kg; details: in vivo
[10] = AUC (0 to t) in BALB/c mouse at 10 mg/kg, po by LC/MS-MS analysis; type: ADME, organism-based; parameters: dose 10 mg/kg; details: in vivo
[11] = AUC (0 to t) in BALB/c mouse at 2 mg/kg, iv by LC/MS-MS analysis; type: ADME, organism-based; parameters: dose 2 mg/kg; details: in vivo
[12] = AUC (0 to infinity) in BALB/c mouse at 10 mg/kg, po by LC/MS-MS analysis; type: ADME, organism-based; parameters: route oral, time infinity, dose 10 mg/kg; details: in vivo
[13] = AUC (0 to infinity) in BALB/c mouse at 2 mg/kg, iv by LC/MS-MS analysis; type: ADME, organism-based; parameters: route intravenous, time infinity, dose 2 mg/kg; details: in vivo
[14] = Half life in BALB/c mouse at 10 mg/kg, po by LC/MS-MS analysis; type: ADME, organism-based; details: in vivo
[15] = Half life in BALB/c mouse at 2 mg/kg, iv by LC/MS-MS analysis; type: ADME, organism-based; details: in vivo
[16] = Bioavailability in BALB/c mouse at 10 mg/kg, po by LC/MS-MS analysis; type: ADME, organism-based; details: in vivo
THP-1 [17] = assay: Antiinflammatory activity in human THP-1 cells assessed as reduction in LPS-induced TNF alpha secretion at 10 uM incubated for 12 hrs measured by ELISA; type: functional, cell-based
THP-1 [18] = assay: Antiinflammatory activity in human THP-1 cells assessed as reduction in LPS-induced IL6 secretion at 10 uM incubated for 12 hrs measured by ELISA; type: functional, cell-based
THP-1 [19] = assay: Cytotoxicity against human THP-1 cells assessed as reduction in cell viability at 1 to 10 uM; type: cell-based; details: thp-1, 10 µM

SMILES: C[C@H]1[C@H](C)CC[C@]2(C(=O)O[C@@H]3O[C@H](CO[C@@H]4O[C@H](CO)[C@@H](O[C@@H]5O[C@@H](C)[C@H](O)[C@@H](O)[C@H]5O)[C@H](O)[C@H]4O)[C@@H](O)[C@H](O)[C@H]3O)CC[C@]3(C)C(=CC[C@@H]4[C@@]5(C)C[C@@H](O)[C@H](O)[C@@](C)(CO)[C@@H]5[C@H](O)C[C@]43C)[C@H]12
- Activity [1]: Active

SMILES: CC1(C)[C@@H](O[C@H]2O[C@H](C(=O)O)[C@@H](O)[C@H](O)[C@H]2O[C@@H]2O[C@H](C(=O)O)[C@@H](O)[C@H](O)[C@H]2O)CC[C@]2(C)[C@H]3C(=O)C=C4[C@@H]5C[C@@](C)(C(=O)O)CC[C@]5(C)CC[C@@]4(C)[C@]3(C)CC[C@@H]12
- Activity [1]: Active

SMILES: C[C@H]1[C@H](C)CC[C@]2(C(=O)O)CC[C@]3(C)C(=CC[C@@H]4[C@@]5(C)CC[C@H](O)C(C)(C)[C@@H]5CC[C@]43C)[C@H]12
- Activity [1]: Active

SMILES: CC1(C)CC[C@]2(C(=O)O[C@@H]3O[C@H](CO)[C@@H](O)[C@H](O)[C@H]3O)CC[C@]3(C)C(=CC[C@@H]4[C@@]5(C)CC[C@H](O[C@@H]6O[C@H](C(=O)O)[C@@H](O)[C@H](O)[C@H]6O[C@@H]6O[C@H](CO)[C@@H](O)[C@H](O)[C@H]6O)C(C)(C)[C@@H]5CC[C@]43C)[C@@H]2C1
- Activity [1]: Active

SMILES: CC1(C)CC[C@]2(C(=O)O)CC[C@]3(C)C(=C2C1)CC[C@@H]1[C@@]2(C)CC[C@H](O[C@@H]4OC[C@H](O)[C@H](O)[C@H]4O[C@@H]4OC[C@@H](O)[C@H](O)[C@H]4O)C(C)(C)[C@@H]2CC[C@]13C
- half-life [2]: > 2 h
- half-life [3]: > 2 h
- CLint scaled [4]: 3.25 mL/min/kg
- CLint scaled [5]: 2.34 mL/min/kg
- Tmax [6]: 0.75 h
- Tmax [7]: 4.8 min
- Cmax [8]: 54.2 ng/mL
- Cmax [9]: 8820 ng/mL
- AUC(0-t) [10]: 145 ng·h/mL
- AUC(0-t) [11]: 2570 ng·h/mL
- AUC(0-inf) [12]: 151 ng·h/mL
- AUC(0-inf) [13]: 2590 ng·h/mL
- half-life [14]: 1.26 h
- half-life [15]: 2.25 h
- bioavailability [16]: 1.13%

SMILES: C[C@@H]1O[C@@H](O[C@H]2[C@H](O[C@H]3CC[C@@]4(C)[C@@H](CC[C@]5(C)[C@@H]4CC=C4[C@@H]6CC(C)(C)CC[C@]6(C(=O)O[C@@H]6O[C@H](CO[C@@H]7O[C@H](CO)[C@@H](O[C@@H]8O[C@@H](C)[C@H](O)[C@@H](O)[C@H]8O)[C@H](O)[C@H]7O)[C@@H](O)[C@H](O)[C@H]6O)CC[C@]45C)[C@]3(C)CO)OC[C@H](O)[C@@H]2O)[C@H](O)[C@H](O)[C@H]1O
- Activity [1]: Active

SMILES: CC1(C)CC[C@]2(C(=O)O)CC[C@]3(C)C(=CC[C@@H]4[C@@]5(C)CC[C@H](O[C@@H]6O[C@H](C(=O)O)[C@@H](O)[C@H](O[C@@H]7OC[C@@H](O)[C@H](O)[C@H]7O)[C@H]6O)C(C)(C)[C@@H]5CC[C@]43C)[C@@H]2C1
- Activity [1]: Active

SMILES: C[C@H]1[C@H](C)CC[C@]2(C(=O)O[C@@H]3O[C@H](CO[C@@H]4O[C@H](CO)[C@@H](O[C@@H]5O[C@@H](C)[C@H](O)[C@@H](O)[C@H]5O)[C@H](O)[C@H]4O)[C@@H](O)[C@H](O)[C@H]3O)CC[C@]3(C)C(=CC[C@@H]4[C@@]5(C)C[C@@H](O)[C@H](O)[C@@](C)(CO)[C@@H]5CC[C@]43C)[C@H]12
- Activity [1]: Active

SMILES: CC1(C)CC[C@]2(C(=O)O)CC[C@]3(C)C(=CC[C@@H]4[C@@]5(C)C[C@@H](O)[C@H](O)C(C)(C)[C@@H]5CC[C@]43C)[C@@H]2C1
- Activity [1]: Active

SMILES: CC1(C)CC[C@]2(C(=O)O[C@@H]3OC[C@@H](O)[C@H](O)[C@H]3O)CC[C@]3(C)C(=C2C1)CC[C@@H]1[C@@]2(C)CC[C@H](O[C@@H]4OC[C@H](O)[C@H](O)[C@H]4O)C(C)(C)[C@@H]2CC[C@]13C
- Activity (THP-1 [17]): Active
- Activity (THP-1 [18]): Active
- Activity (THP-1 [19]): Non-Toxic
- half-life [2]: 0.751 h
- half-life [3]: > 2 h
- CLint scaled [4]: 38.6 mL/min/kg
- Tmax [6]: 2.67 h
- Tmax [7]: 4.8 min
- Cmax [8]: 728 ng/mL
- Cmax [9]: 3500 ng/mL
- AUC(0-t) [10]: 3000 ng·h/mL
- AUC(0-t) [11]: 3220 ng·h/mL
- AUC(0-inf) [12]: 3080 ng·h/mL
- AUC(0-inf) [13]: 3300 ng·h/mL
- half-life [14]: 1.14 h
- half-life [15]: 1.74 h
- bioavailability [16]: 18.6%

SMILES: CC1(C)CC[C@]2(C(=O)O)CC[C@]3(C)C(=CC[C@@H]4[C@@]5(C)CC[C@H](O[C@@H]6O[C@H](C(=O)O)[C@@H](O)[C@H](O)[C@H]6O)C(C)(C)[C@@H]5CC[C@]43C)[C@@H]2C1
- Activity [1]: Active

SMILES: CC1(C)CC[C@]2(C(=O)O)CC[C@]3(C)C(=CC[C@@H]4[C@@]5(C)CC[C@H](O)[C@@](C)(CO)[C@@H]5CC[C@]43C)[C@@H]2C1
- Activity [1]: Active

SMILES: C[C@@H]1CC[C@]2(C(=O)O[C@@H]3O[C@H](CO)[C@@H](O)[C@H](O)[C@H]3O)CC[C@]3(C)C(=CC[C@@H]4[C@@]5(C)CC[C@H](O[C@@H]6OC[C@H](O)[C@H](O)[C@H]6O)C(C)(C)[C@@H]5CC[C@]43C)[C@@H]2[C@]1(C)O
- Activity [1]: Active

SMILES: CC1(C)CC[C@]2(C(=O)O)CC[C@]3(C)C(=C2C1)CC[C@@H]1[C@@]2(C)CC[C@H](O[C@@H]4OC[C@H](O)[C@H](O)[C@H]4O[C@@H]4O[C@H](CO)[C@@H](O)[C@H](O)[C@H]4O)C(C)(C)[C@@H]2CC[C@]13C
- Activity (THP-1 [17]): Active
- Activity (THP-1 [18]): Active

SMILES: C=C(C)[C@@H]1CC[C@]2(C(=O)O)CC[C@]3(C)[C@H](CC[C@@H]4[C@@]5(C)CC[C@H](O)C(C)(C)[C@@H]5CC[C@]43C)[C@@H]12
- Activity [1]: Active

SMILES: CC1(C)CC[C@]2(C(=O)O)CC[C@]3(C)C(=CC[C@@H]4[C@@]5(C)CC[C@H](O)C(C)(C)[C@@H]5CC[C@]43C)[C@@H]2C1
- Activity [1]: Active

SMILES: C[C@H]1[C@H](C)CC[C@]2(C(=O)O)CC[C@]3(C)C(=CC[C@@H]4[C@@]5(C)C[C@@H](O)[C@H](O)[C@@](C)(CO)[C@@H]5[C@H](O)C[C@]43C)[C@H]12
- Activity [1]: Active

SMILES: C[C@@H]1CC[C@]2(C(=O)O)CC[C@]3(C)C(=CC[C@@H]4[C@@]5(C)CC[C@H](O[C@@H]6OC[C@H](O)[C@H](O)[C@H]6O)C(C)(C)[C@@H]5CC[C@]43C)[C@@H]2[C@]1(C)O
- Activity [1]: Active

SMILES: C[C@H]1[C@H](C)CC[C@]2(C(=O)O)CC[C@]3(C)C(=CC[C@@H]4[C@@]5(C)C[C@@H](O)[C@H](O)[C@@](C)(CO)[C@@H]5CC[C@]43C)[C@H]12
- Activity [1]: Active

SMILES: CC1(C)CC[C@]2(C(=O)O[C@@H]3O[C@H](CO[C@@H]4O[C@H](CO)[C@@H](O)[C@H](O)[C@H]4O)[C@@H](O)[C@H](O)[C@H]3O)CC[C@]3(C)C(=CC[C@@H]4[C@@]5(C)CC[C@H](O[C@@H]6OC[C@H](O)[C@H](O)[C@H]6O)[C@@](C)(CO)[C@@H]5CC[C@]43C)[C@@H]2C1
- Activity [1]: Active

SMILES: C[C@H]1[C@H](C)CC[C@]2(C(=O)O)CC[C@]3(C)C(=CC[C@@H]4[C@@]5(C)C[C@@H](O)[C@H](O)C(C)(C)[C@@H]5CC[C@]43C)[C@H]12
- Activity [1]: Active

SMILES: CC1(C)[C@@H](O)CC[C@]2(C)[C@H]3C(=O)C=C4[C@@H]5C[C@@](C)(C(=O)O)CC[C@]5(C)CC[C@@]4(C)[C@]3(C)CC[C@@H]12
- Activity [1]: Active

SMILES: O=C(c1ccc(F)cc1)C1CCN(CCn2c(=O)[nH]c3ccccc3c2=O)CC1 [KETANSERIN]
- half-life [2]: 0.707 h
- half-life [3]: 0.322 h
- CLint scaled [4]: 41 mL/min/kg
- CLint scaled [5]: 283 mL/min/kg

Reference: ChEMBL document CHEMBL4732083, “Synthesis and anti-inflammatory activity of saponin derivatives of δ-oleanolic acid” (Eur J Med Chem, 2021)
